We go through one molecule from PMC10056008 (Pharmaceuticals, 2023).

One series has as its system coagulation. Put plainly: Coagulation assay (aPTT, PT, dPT, TT, fibrinogen) in plasma of dosed subjects. Type of series: in vivo, human. The protocol:
An open-label, two-period, single sequence clinical study was conducted. After an overnight fast and drinking 200 mL of water one hour before drug administration, eligible subjects were administered with a capsule of dabigatran etexilate 150 mg ([…]®) on the first day of the study. Blood samples for pharmacokinetic and pharmacodynamic analyses were obtained using EDTA tubes and citrate tubes, respectively. […] Subjects remained at fasting stage until 4 h after the administration. […] To ensure compliance, subjects visited the study site for every drug administration. […] Blood samples were obtained at the same time point scheduled as the first day of the study. Adverse events were collected during the entire study period. This study was conducted in accordance with the Declaration of Helsinki, good clinical practice, and local regulation. The study was approved by the Institutional Review Board at Korea University Guro Hospital (2018GR0336, date of approval: 11 October 2018) and registered at ClinicalTrials.gov (NCT03728101). Anticoagulant assays of aPTT, PT, dPT, TT, and fibrinogen were measured using STA® Compact Max (Stago, Asnieres, France) according to the manufacturer's instructions. […] To measure aPTT, 50 μL of plasma sample was placed in a cuvette in the presence of STA®-PTT (50 μL) and 50 μL of 0.025 M CaCl2. For fibrinogen, 7.5 μL of plasma which was automatically diluted with Owren-Koller buffer was placed into a cuvette and then 50 μL of […] was added. For pharmacodynamic assessment, Phoenix Winnonlin® version 8.3 (Pharsight, Mountain View, CA, USA) was used to calculate AUEC with the linear trapezoidal method and Rmax was directly determined from individual profiles.

Another series has as its system thrombin generation. As to the kind of experiment: Thrombin generation assay (TGA) in plasma of dosed subjects. Type of series: in vivo, human. Here is the method:
An open-label, two-period, single sequence clinical study was conducted. After an overnight fast and drinking 200 mL of water one hour before drug administration, eligible subjects were administered with a capsule of dabigatran etexilate 150 mg ([…]®) on the first day of the study. Blood samples for pharmacokinetic and pharmacodynamic analyses were obtained using EDTA tubes and citrate tubes, respectively. […] Subjects remained at fasting stage until 4 h after the administration. […] To ensure compliance, subjects visited the study site for every drug administration. […] Blood samples were obtained at the same time point scheduled as the first day of the study. Adverse events were collected during the entire study period. This study was conducted in accordance with the Declaration of Helsinki, good clinical practice, and local regulation. […] TGA was performed using a Technothrombin® TGA kit (Technoclone, Vienna, Austria) on a fully automated, computer-controlled microplate reader (Flexstation 3; Molecular Devices, San Jose, CA, USA) with a 360 nm excitation wavelength and 460 nm emission wavelength. In brief, 30 μL of plasma samples were mixed with 25 μL of 400 μmol/L fluorogenic substrate ([…]; Bachem, Bubendorf, Switzerland). The assay was initiated by dispensing 10 μL of 5 pmol/L recombinant human tissue factor lipidated with synthetic phospholipids and 10 μL of 15 mmol/L CaCl2. TGA results are expressed as Cmax, AUC, Tmax, and lag time. For pharmacodynamic assessment, Phoenix Winnonlin® version 8.3 (Pharsight, Mountain View, CA, USA) was used to calculate AUEC with the linear trapezoidal method and Rmax was directly determined from individual profiles.

The next series relates to recombinant CES1A1. The note with it: cited from earlier work.
For series [1] the following is noted: cited from earlier work.
A further series relates to CES1. The note with it: in vitro; cited from earlier work.
The mark [2] stands for this setting: before dabigatran etexilate administration, period with simvastatin 40 mg once daily, mean (SD).
The mark [3] stands for this setting: before vs after once daily simvastatin for 7 days.

As to `CCC(C)(C)C(=O)O[C@H]1C[C@@H](C)C=C2C=C[C@H](C)[C@H](CC[C@@H]3C[C@@H](O)CC(=O)O3)[C@H]21` [Simvastatin], in the series with coagulation (setting [2]), the “Fibrinogen, baseline” value is on record as 259.3 (39.4) mg/dL; the “PT (INR), baseline” value is given as 1.0 (0.1) INR; the “PT, baseline” value is 13.7 (0.6) s; the “TT, baseline” value is given as 16.2 (0.9) s. In the series on coagulation (setting [2]), the “aPTT, baseline” value is recorded as 40.4 (3.3) s and the “dPT, baseline” value is given as 43.2 (1.8) s. Further, in the series on coagulation (setting [3]), the “anticoagulant effect of simvastatin without dabigatran, coagulation assays” value is recorded as “no significant difference”. Besides, in the series on thrombin generation (setting [2]), the “Thrombin Generation Assay AUC (endogenous thrombin potential), baseline” value is 4073.1 (642.2) nM∙min; the “Thrombin Generation Assay Tmax, baseline” value was 7.3 (0.8) min; the “Thrombin Generation Assay lag time, baseline” value was 3.5 (0.5) min. The “anticoagulant effect of simvastatin without dabigatran, thrombin generation” value in the series on thrombin generation (setting [3]) was “no significant difference”. Further, the “effect on imidapril hydrolase activity” value in the series with recombinant CES1A1 is given as “inhibitory effects”. In addition, the elimination half-life entry in series [1] is “about 2.8 h”. Besides, the “effect on CES1-mediated hydrolysis of clopidogrel” value with CES1 is recorded as “can inhibit”.
